Source: patent publication US8293706B2, “Method for inhibiting release of hepatitis B virus from liver cells” (priority 2008, dated 2012)
Where two headings read alike, the source gives them in different places.

Experiments:
HBV LM/MV = assay: HBVDR assay, strain LM/MV; assay type: cell-based
HBV L180M = assay: HBVDR assay, strain L180M; assay type: cell-based
HBV M204I = assay: HBVDR assay, strain M204I; assay type: cell-based
HBV M204V = assay: HBVDR assay, strain M204V; assay type: cell-based
HBV N236T = assay: HBVDR assay, strain N236T; assay type: cell-based
HBV WT = assay: HBVDR assay, strain WT; assay type: cell-based; conditions: assay type HBVDR
HBV = assay: Inhibition of HBV release from 2.2.15 cells (HBV virion DNA in culture medium, quantitative blot hybridization); assay type: cell-based; conditions: for SI: S.I. (CC50/EC90)
Procedure: (§1) The ability of sLDLR to inhibit pathogenic viruses was tested by the NIAID Antimicrobial Acquisition and Coordinating Facility (AACF). Confluent cultures of 2.2.15 cells (HBV-infected human HepG2 hepatocellular carcinoma cells (ATCC HB-8065), constitutively shedding HBV virions) were maintained on 96-well flat-bottomed tissue culture plates in RPMI1640 medium with 2% fetal bovine serum (Korba & Gerin, Antivir. Res. 19:55-70, 1992). Cultures (6 per each of 4 test concentrations on two replicate plates) were treated with 9 consecutive daily doses of sLDL compounds. Medium was changed daily with fresh test compounds. HBV virion DNA in the culture medium was assessed 24 hours after the last treatment by quantitative blot hybridization. Uptake of neutral red dye (absorbance of internalized dye at […] [A510]) wa used to determine the relative level of toxicity 24 hours following the last treatment (Korba & Gerin, Antivir. Res. 19:55-70, 1992). Values are presented as a percentage of the average A510 values for 9 separate cultures of untreated cells maintained on the same plate. Cultures for the toxicity analyses were seeded at the same time with the identical pool of stock cells used for the antiviral analyses and maintained in an identical manner. A total of 3 cultures were treated with each concentration of test compound. […] CC50, EC50, EC90, and S.I. (CC50/EC90) were calculated. Lamivudine (3TC) was used as a positive assay control.

[1] = Neutral red dye uptake toxicity in 2.2.15 cells; assay type: cell-based, human; conditions: human, neutral red uptake (A510) 24 hours after last of 9 daily treatments, positive assay control
Procedure: as §1, with “Lamivudine (3TC) was used as a positive assay control.” left out

[2] = system: lamivudine as well as adefovir dipovoxil resistant mutants (HBV); assay: HBVDR assay, panel of resistant mutants; assay type: cell-based; conditions: all tested resistant mutants
[3] = system: 2.2.15 cells (HBV-infected human HepG2 hepatocellular carcinoma cells); assay: Neutral red dye uptake toxicity in 2.2.15 cells; assay type: cell-based; conditions: neutral red uptake (A510) 24 hours after last of 9 daily treatments
Procedure: as §1, with “Lamivudine (3TC) was used as a positive assay control.” left out

[4] = HBV strain LM/MV, assay type HBVDR, read-out: EC50
[5] = HBV strain LM/MV, assay type HBVDR, read-out: EC90
[6] = HBV strain L180M, assay type HBVDR, read-out: EC50
[7] = HBV strain L180M, assay type HBVDR, read-out: EC90
[8] = HBV strain M204I, assay type HBVDR, read-out: EC50
[9] = HBV strain M204I, assay type HBVDR, read-out: EC90
[10] = HBV strain M204V, assay type HBVDR, read-out: EC50
[11] = HBV strain M204V, assay type HBVDR, read-out: EC90
[12] = HBV strain N236T, assay type HBVDR, read-out: EC50
[13] = HBV strain N236T, assay type HBVDR, read-out: EC90
[14] = HBV virion DNA in culture medium 24 hours after last of 9 consecutive daily doses, 2.2.15 cells

| Compound | EC50 (HBV LM/MV; [4]) | EC90 (HBV LM/MV; [5]) | EC50 (HBV L180M; [6]) | EC90 (HBV L180M; [7]) | EC50 (HBV M204I; [8]) | EC90 (HBV M204I; [9]) | EC50 (HBV M204V; [10]) | EC90 (HBV M204V; [11]) | EC50 (HBV N236T; [12]) | EC90 (HBV N236T; [13]) | EC50 (HBV WT) | EC90 (HBV WT) | also measured |
| --- | --- | --- | --- | --- | --- | --- | --- | --- | --- | --- | --- | --- | --- |
| CC(C)(C)C(=O)OCOP(=O)(COCCn1cnc2c(N)ncnc21)OCOC(=O)C(C)(C)C [ADV, Adefovir Dipovoxil] | 1.3 µM | 7.8 µM | 1.9 µM | 8.5 µM | 1.3 µM | 7.2 µM | 1.8 µM | 7 µM | 8.1 µM | 32 µM | 1.5 µM | 6.5 µM |  |
| Nc1ccn([C@@H]2CS[C@H](CO)O2)c(=O)n1 [Lamivudine] |  |  |  |  |  |  |  |  |  |  |  |  | EC50 (HBV; Hepatitis B virus, 24 h): 0.045 µM; EC90 (HBV; Hepatitis B virus, 24 h): 0.146 µM; SI (HBV; Lamivudine columns): 15178; EC50 (HBV LM/MV; Hepatitis B virus): > 100 µM; EC90 (HBV LM/MV; Hepatitis B virus): > 100 µM; EC50 (HBV L180M; Hepatitis B virus): 5.2 µM; EC90 (HBV L180M; Hepatitis B virus): 20 µM; CC50 [1]: 2310 µM; EC50 (HBV M204I; Hepatitis B virus): > 100 µM; EC90 (HBV M204I; Hepatitis B virus): > 100 µM; EC50 (HBV M204V; Hepatitis B virus): > 100 µM; EC90 (HBV M204V; Hepatitis B virus): > 100 µM; EC50 (HBV N236T; Hepatitis B virus): 0.2 µM; EC90 (HBV N236T; Hepatitis B virus): 0.6 µM; EC50 (HBV WT; Hepatitis B virus): 0.2 µM; EC90 (HBV WT; Hepatitis B virus): 0.7 µM |
| sLDLR | 1.2 µM | 7.5 µM | 0.8 µM | 6.3 µM | 1.1 µM | 8 µM | 1 µM | 6.5 µM | 1 µM | 8.2 µM | 0.9 µM | 6 µM | inhibition of formation of HBV virion from virus-infected cells relative to toxicity (HBV; 2.2.15 cells): inhibited the formation of HBV virion from virus-infected cells at concentrations far below toxicity; EC50 (HBV; [14]): 0.131 mg/L; EC90 (HBV; [14]): 0.922 mg/L; SI (HBV; sLDLR columns): >11; activity against lamivudine and adefovir dipovoxil resistant mutants [2]: active against all tested lamivudine as well as adefovir dipovoxil resistant mutants; CC50 [3]: >10 mg/L |
